Data taken from patent US9121022B2, “Method for controlling herbicide-resistant plants” (priority 2010, dated 2015).
“Also recorded” adds a separate entry of the source. d = 2'-deoxy (DNA); r = 2'-OH (RNA)

Experiments:
[1] = tested on: Palmer amaranth (EPSPS copy numbers 16 to 112); assay: combinations of EPSPS, TIF and ddATPase polynucleotides with glyphosate, protocols of Table 12 (Example 26, Table 13); type: in vivo, Palmer amaranth (Amaranthus palmeri)
Experimental: The polynucleotides listed in Table 11 were produced by synthesis or by in vitro transcription.
Solutions of the polynucleotides were prepared and applied to the leaves of Palmer amaranth using the protocols described in Table 12.

[2] = tested on: Nicotiana benthamiana phytoene desaturase; assay: topical PDS oligonucleotides/polynucleotides on tobacco, bleaching and chlorophyll (Example 10); type: in vivo; details: for Chlorophyll (day 7) / Chlorophyll (day 12): 6 spots on the apical area, lower values indicate suppression of phytoene desaturase; for systemic regulation (suppression) of the target phytoene desaturase gene: conclusion from Table 4; for Bleaching (day 5): day 5 after treatment
Description: The target gene used was a Nicotiana benthamiana phytoene desaturase (SEQ ID NO:2), shown in FIG. 10; the segment consisting of nucleotides 421-1120 of SEQ ID NO:2 (underlined text in FIG. 10) was used to design a 700-mer dsRNA polynucleotide (“PDS 700-mer”) and the segment consisting of nucleotides 914-1113 of SEQ ID NO:2 (bolded underlined text in FIG. 10) was used to design a 200-mer dsRNA polynucleotide (“PDS 200-mer”). FIG. 11 schematically depicts the location of the sequences of these oligonucleotides and polynucleotides in relation to the […] (SEQ ID NO:2) sequence. Non-plant sequences obtained from corn rootworm (“CRW”), SEQ ID NOs:27, 28, 29, and 30 were used as non-homologous controls. Some of the polynucleotides included a T7 promoter sequence (indicated by lower-case text in Table 3) that is a promoter recognized by a bacteriophage T7 RNA polymerase.
The following procedure was used for all assays described in this example. Four-week old Nicotiana benthamiana plants were used in all assays. Plants were treated with 0.1% SILWET L-77® brand surfactant solution freshly made with ddH2O. Two fully expanded leaves per plant (one cotyledon, one true leaf) were dipped into the SILWET L-77® brand surfactant solution for a few seconds, and allowed to dry for 15-30 minutes before application of the polynucleotide composition. Final concentration for each oligonucleotide or polynucleotide was 25 microM (in 0.01% SILWET L-77® brand surfactant, 5 mM sodium phosphate buffer, pH 6.8) unless otherwise stated. 20 microliters of the solution was applied to the top surface of each of the two pre-treated leaves to provide a total of 40 microliters (1 nmol oligonucleotide or polynucleotide) for each plant. Leaf bleaching was observed 3 days post treatment.
FIG. 13 illustrates phenotypes observed at day 12 after treatment in another assay of the effect from twelve combinations of polynucleotides or oligonucleotides (see Table 4). Table 4 also lists observations of visible bleaching of the plants at day 5 after treatment and the results of chlorophyll measurements taken at days 7 and 12 after treatment. Chlorophyll measurements are an indication of suppression of the target gene phytoene desaturase, and measurements were taken at 6 spots on the apical area, focussing on visibly bleached leaves or (in plants without visible bleaching) on leaves in equivalent locations on the plants; lower chlorophyll measurement values indicate suppression of phytoene desaturase.

[3] = tested on: Palmer amaranth phytoene desaturase (PDS); assay: sequence specificity of PDS dsRNA on Palmer amaranth, leaf bleaching (Example 11); type: in vivo; details: for bleaching of leaves: 0.6 micromolar, 40 microliters per plant, 3 days post treatment; for bleaching of leaves (FIG. 17): separate assay
Description: Palmer amaranth phytoene desaturase (PDS) has the sequence […] […] […] […] […] […] […] […] […] […] […] […] […] […] […] […] […] […] […] […] […] […] […] […] (SEQ ID NO:37). A 678 base pair dsRNA polynucleotide with an anti-sense strand capable of hybridizing to the RNA encoded by the nucleotides at positions 317-994 (shown as underlined text) in SEQ ID NO:37 and a 198 base pair dsRNA polynucleotide with an anti-sense strand capable of hybridizing to the RNA encoded by the nucleotides at positions 797-994 (shown as italicized and underlined text) in SEQ ID NO:37 were synthesized.
Nicotiana benthamiana phytoene desaturase has the sequence […] […] […] […] […] […] […] […] […] […] […] […] […] […] […] […] […] […] […] […] […] […] […] […] […] […] (SEQ ID NO:38). A 685 base pair dsRNA polynucleotide with an anti-sense strand capable of hybridizing to the RNA encoded by the nucleotides at positions 421-1105 (shown as underlined text) in SEQ ID NO:38 and a 192 base pair dsRNA polynucleotide with an anti-sense strand capable of hybridizing to the RNA encoded by the nucleotides at positions 914-1105 (shown as italicized and underlined text) in SEQ ID NO:38 were synthesized.
Palmer amaranth plants having 16 copies of EPSPS and 5-8 inches high were treated with 0.1% SILWET L-77® brand surfactant solution freshly made with ddH2O. Four fully expanded leaves per plant were dipped into the SILWET L-77® brand surfactant solution for a few seconds, and allowed to dry for 30 minutes to 1 hour before application of the polynucleotide composition. Individual polynucleotide solutions were made for each of the 678 bp Palmer PDS dsRNA, 198 bp Palmer PDS dsRNA, the 685 bp Nicotiana benthamiana PDS dsRNA, and the 192 bp Nicotiana benthamiana PDS dsRNA (0.6 micromolar polynucleotide in 0.01% SILWET L-77® brand surfactant, 5 mM sodium phosphate buffer, pH 6.8). 10 microliters of polynucleotide solution (or buffer as a control) was applied to the top surface of each of the four pre-treated leaves per plant to provide a total of 40 microliters for each plant. Plants were kept in a growth chamber, and leaf bleaching was observed 3 days post treatment.

[4] = Protocol 3, 29 g/acre, copy number 16, 13 DAT

| Molecule | Chlorophyll (day 7) [2] | Chlorophyll (day 12) [2] | systemic regulation (suppression) of the target phytoene desaturase gene [2] | Bleaching (day 5) [2] | other results |
| --- | --- | --- | --- | --- | --- |
| IDT [1]: Palmer/EPSPS dsRNA, SEQ ID NO. 83, 84; 25-mer sense with two 3′ deoxyribonucleotides, 27-mer anti-sense (sense CUACCAUCAACAAUGGUGUCCAUAC; antisense GUAUGGACACCAUUGUUGAUGGUAGUA; sense: sugars from the 5' end r23 d2, backbone not given here; antisense: RNA, backbone not given here) | – | – | – | – | Results: stunted [1, 4]: 51% stunted |
| Treatment 8: SEQ ID NO: 22, 23; anti-sense 22-mer oligos without T7 promoter (antisense 1 CATCTCCTTTAATTGTACTGCC; antisense 2 TTTAATTGTACTGCCATTATTC; listed as DNA, chemistry not given here) | – | – | – | – | bleaching of apical leaves (FIG. 15) ([2]; another assay, listed as PDS anti-sense): strong bleaching; also recorded: apical leaf bleaching observed |
| IDT [5]: Palmer/EPSPS dsRNA (21-mer) with blunt ends, SEQ ID NO. 91, 92 (chain 1 AACAUGAACAAAAUGCCAGAU; chain 2 AUCUGGCAUUUUGUUCAUGUU; RNA, backbone not given here) | – | – | – | – | Results: stunted ([1]; Protocol 1, 0.29 g/acre, copy number 33, 54, 55, 18 DAT): 71%; Results: killed ([1]; Protocol 1, 2.9 g/acre each, copy number 34, 36, 54, 22 DAT): 100% kill; Results: killed ([1]; Protocol 1, 2.9 g/acre, copy number 33, 54, 55, 18 DAT): 100% killed |
| IDT [2]: Palmer/EPSPS dsRNA, SEQ ID NO. 85, 86 (chain 1 AGUUGGUGGGCAAUCAUCAAUUGTT; chain 2 AACAAUUGAUGAUUGCCCACCAACUCU; chain 1: sugars from the 5' end r23 d2, backbone not given here; chain 2: RNA, backbone not given here) | – | – | – | – | Results: control [1, 4]: 0% control |
| 6 (sense ATCCATGATATCGTGAACATC; antisense GCAAAGAAAAATGCGTCG; DNA, backbone not given here) [compound 6] | 34.2 | 38.2 | did not suppress | not yet | – |
| IDT [3]: Palmer/EPSPS dsRNA, SEQ ID NO. 87, 88 (chain 1 GGUCGACAACUUGCUGUAUAGUGAT; chain 2 AUCACUAUACAGCAAGUUGUCGACCUC; chain 1: sugars from the 5' end r23 d2, backbone not given here; chain 2: RNA, backbone not given here) | – | – | – | – | Results: stunted [1, 4]: 51% stunted |
| 7 (sense 1 GCAAGAGATGTCCTAGGTGGG; sense 2 ACAGATTTCTTCAGGAGAAACATGG; DNA, backbone not given here) [compound 7] | 32.0 | 41.1 | did not suppress | not yet | – |
| 8 (antisense 1 CATCTCCTTTAATTGTACTGCC; antisense 2 TTTAATTGTACTGCCATTATTC; DNA, backbone not given here) [compound 8] | 11.3 | 3.2 | effective | strong | – |
| 198 bp Palmer PDS dsRNA: dsRNA to positions 797-994 of Palmer amaranth PDS (SEQ ID NO:37) (nucleic acid, listed as Amaranthus palmeri, complementary strand) sense: ACCGATTCCTGCAGGAGAAACATGGTTCTAAGATGGCCTTCCTAGACGGAAACCCTCCAGAGAGGCTGTGCATGCCTATTGTTAAACACATCGAGTCACTAGGTGGTGAAGTTAAACTTAACTCTCGTATACAAAAGATTCAGTTGGACCAGAGTGGAAGCGTGAAGAGTTTTTTGCTAAATAACGGGAGGGAAATAC | – | – | – | – | bleaching of leaves [3]: showed bleaching of leaves; bleaching of leaves (FIG. 17) [3]: apical leaf bleaching observed |
| Treatment 10: dsRNA corresponding to nucleotides 914-1113 of SEQ ID NO:2 (nucleic acid, listed as Nicotiana benthamiana, double-stranded RNA) ACAGATTTCTTCAGGAGAAACATGGTTCAAAAATGGCCTTTTTAGATGGTAACCCTCCTGAGAGACTTTGCATGCCGATTGTGGAACATATTGAGTCAAAAGGTGGCCAAGTCAGACTAAACTCACGAATAAAAAAGATCGAGCTGAATGAGGATGGAAGTGTCAAATGTTTTATACTGAATAATGGCAGTACAATTAAA | – | – | also effective | – | bleaching of apical leaves (FIG. 12A) ([2]; 200-mer dsRNA at 0.6 microM, oligonucleotides 25 microM each): Bleaching of apical leaves was observed |
| 9 (nucleic acid, DNA, backbone not given here) chain 1: GCAAGAGATGTCCTAGGTGGG chain 2: ACAGATTTCTTCAGGAGAAACATGG chain 3: CATCTCCTTTAATTGTACTGCC chain 4: TTTAATTGTACTGCCATTATTC chain 5: CACTTCCATCCTCATTCAGCTCGAT chain 6: ACACCTCATCTGTCACCCTATCAG chain 7: CAGTCTCGTACCAATCTCCATCAT | 30.2 | 34.4 | – | not yet | – |
| 678 bp Palmer PDS dsRNA: dsRNA to positions 317-994 of Palmer amaranth PDS (SEQ ID NO:37) (nucleic acid, listed as Amaranthus palmeri, complementary strand) sense: TAGGAGGAAAGGTTGCAGCGTGGAAGGATGAGGATGGTGACTGGTATGAGACTGGGCTACATATATTCTTTGGGGCATATCCAAATGTCCAAAATCTATTTGGAGAACTTGGTATAAATGACCGACTGCAATGGAAGGAGCACTCTATGATTTTTGCAATGCCCAGCAAGCCCGGTGAATTCAGTCGCTTTGATTTTCCCGAAATCCTGCCTGCACCATTAAATGGCATATGGGCAATCCTAAGAAATAATGAAATGCTAACCTGGCCAGAAAAAATCAAGTTTGCCATTGGCTTGTTGCCTGCTATGGCAGGCGGACAGTCATATGTTGAAGCACAAGATGGTTTGAGTGTCCAAGAGTGGATGAGAAAACAAGGAGTACCCGATCGTGTAACTGATGATGTGTTTATTGCCATGTCAAAGGCACTGAACTTCATAAATCCCGATGAACTTTCAATGCAGTGCATCTTGATTGCTCTGAACCGATTCCTGCAGGAGAAACATGGTTCTAAGATGGCCTTCCTAGACGGAAACCCTCCAGAGAGGCTGTGCATGCCTATTGTTAAACACATCGAGTCACTAGGTGGTGAAGTTAAACTTAACTCTCGTATACAAAAGATTCAGTTGGACCAGAGTGGAAGCGTGAAGAGTTTTTTGCTAAATAACGGGAGGGAAATAC | – | – | – | – | bleaching of leaves [3]: showed bleaching of leaves; bleaching of leaves (FIG. 17) [3]: apical leaf bleaching observed |
